Measured values as given in patent publication US8501680B2, “Antagonists against interaction of PF4 and RANTES” (RWTH Aachen, priority 2005, dated 2013).

Columns and labels:
[1] = system: Mono Mac 6 cells on IL-1 activated HUVEC; arrest potentiated by RANTES and PF4; experiment: Inhibition of monocyte arrest on activated endothelium under flow; type: cell-based, human; conditions: 6 μM peptide, 60 nM RANTES and PF4, 1.5 dyn/cm2, adherent cells after 4 minutes
Description: Endothelial cells from the human umbilical cord (HUVEC, human umbilical vein endothelial cells, PromoCell, Heidelberg) were cultured in endothelial cell growth medium (PromoCell, Heidelberg) and used after two to four passages.
Monocytic Mono Mac 6 cells (MM6, DSMZ) were cultured in RPMI 1640 medium (PAA Laboratories, Pasching, Austria) with the addition of 10% fetal calf serum, 2 mM L-glutamine (Biowhittaker), 1 mM sodium pyruvate, 50 μg/mL gentamycin and 9 μg/mL insulin (MM6 medium). The cells were sown with a density of 2×10^5/mL in 2 mL MM6 medium in 24-well plates and cultured at 37° C. in a humid atmosphere with 5% CO2 for 3 to 4 days before being used for experiments.
The interaction of monocytic Mono Mac 6 cells on activated endothelial cells was investigated.
Petri dishes with confluent HUVEC cells layers activated with IL-113 (Interleukin 1(3, Peprotech, 10 ng/mL, 12 hours) were placed in a flow chamber. Mono Mac 6 cells (0.5×10^6 cells/mL) were resuspended in balanced Hank solution (HBSS with 10 mM HEPES (Gibco BRL), pH 7.3, 0.5% bovine serum albumin (Serva)) and kept on ice. Five minutes before the experiment, Ca^2+ and Mg^2+ were added to the monocytic MM6 cells to yield a final concentration of 1 mM and 60 nM of the chemokines RANTES (Peprotech, Rocky Hill, N.J., USA) and PF4 (ChromaTec, Greifswald), respectively, and 6 μM of the polypeptides of the sequence SEQ ID NO: 2 according to formula (2), the sequence SEQ ID NO: 3 according to formula (3) or a control peptide of the sequence SEQ ID NO: 14 according to formula (14) and then heated up to 37° C. Cells pretreated in this way were then perfused over endothelial cells at 1.5 dyn/cm^2 on a microscope of model IX 50 from Olympus. The number of monocytes that were adherent due to the interaction with the endothelial cells was determined after 4 minutes in various fields by image analysis of photographs by a video camera (3CCD, JVC) and recorder. The data were analyzed as the mean (n=5)±standard deviation (p<0.02) in comparison with a control.

[2] = molecular target: T1, interaction of RANTES and PF4 (Homo sapiens, UniProt P02776+P13501); experiment: Plasmon resonance (Biacore) study of inhibition of RANTES binding to immobilized biotinylated PF4
T1 construct: made in house; host or cells: chemical synthesis (t-Boc solid phase peptide synthesis and native chemical ligation); no expression host
T1 sequence (P13501 24-91): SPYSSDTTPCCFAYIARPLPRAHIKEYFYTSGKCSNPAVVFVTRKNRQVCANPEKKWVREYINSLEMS
T1 sequence (P02776 32-101): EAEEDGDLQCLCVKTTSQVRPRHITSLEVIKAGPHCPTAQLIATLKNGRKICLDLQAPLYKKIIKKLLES
Description: The plasmon resonance studies were performed using HBS-EP buffer (10 mM HEPES, 150 mM NaCl, 0.005% Tween 20, pH 7.4).
Two flow cells of a Cl chip (Biacore AB, Uppsala, Sweden) were activated by injection of 50 μL ethyl(dimethylaminopropyl)carbodiimide/N-hydroxysuccinimide (0.2M/0.05M, Pierce) and then 20 μL streptavidine (0.2 mg/mL, Sigma-Aldrich) was perfused over the activated surface. The surface was next inactivated by four successive injections of 20 μL […] (1M, pH 8, Sigma-Aldrich).
Biotinylated human PF4 (bPF4) at the N-terminus was chemically synthesized by means of t-Boc-based solid phase peptide synthesis and native chemical ligation of PF4 (Dawson, P. E., Kent, S. B. (2000), Annu. Rev. Biochem. 69:923-960, Hackeng, T. M., Griffin, J. H., Dawson, P. E. (1999), Proc. Natl. Acad. Sci. USA, vol. 96, pp. 10068-10073). The bPF4 was immobilized on the dextran surface of a Cl sensor chip by injecting 200 μg/mL bPF4 into HBS-EP through one of the flow chambers and recorded 240 resonance units (RU). The second flow chamber was not treated with bPF4 and served as the reference.
Binding of RANTES (0.5 μM, recombinant human RANTES, Peprotech, Rocky Hill, N.J., USA) or RANTES (0.5 μM) that had been preincubated with various concentrations (0 μM, 10 μM and 100 μM) of the polypeptide of the sequence SEQ ID NO: 3 according to formula (3) in HBS-EP buffer overnight at room temperature to bPF4 was determined by injection of 15 μL of the respective peptide/RANTES mixture and observation of the binding for 180 seconds. The coupling was determined and the measurements were performed in a Biacore 2000 apparatus (Biacore AB) at a flow rate of 5 μL/min. Sensor grams of the RANTES binding were corrected using the BIAevaluation 3.0 software (Biacore AB) to correct for nonspecific background signals and equilibrium resonance units (RU) were determined for each injection.
In another experiment under the same conditions as those described for example 1, the binding of RANTES (0.5 μM) or RANTES (0.5 μM) that had been preincubated with 0 μM, 10 μM, 50 μM and 100 μM of the polypeptide of the sequence SEQ ID NO: 3 according to formula (3), SEQ ID NO: 2 according to formula (2) or a control peptide of the sequence SEQ ID NO: 14 according to formula (14) as given below: […]

[3] = system: atherosclerotic lesions in ApoE mice; experiment: Mouse model of atherosclerosis (ApoE mice on high-fat diet); type: in vivo; conditions: 50 μg intraperitoneal three times a week for 12 weeks
Description: The model for artherosclerosis [sic; atherosclerosis] was 9- to 12-week-old female ApoE litter-mate mice (The Jackson Lab, Bar Harbor, Me., USA). The mice were fed a high-fat diet (21% fat, Altromin® C1061) for 12 weeks. During this period of time, two groups of mice received intraperitoneal injections of 50 μg of the polypeptide of the sequence SEQ ID NO: 15 according to formula (15), administered three times a week, as indicated below:
(n=7 mice) in saline solution. An untreated group of mice (n=12) was used as additional controls.
The mice were sacrificed for histological examination. […] Blood samples were taken at the beginning and end of the experimental nutrition period. The white blood cell count was determined by hemocytometry and the sera were collected, the cholesterol using the Infinity cholesterol kits (Thermo Electron, Melbourne, Australia).
The extent of the atherosclerosis was determined at the aortic route and on thoracoabdominal aorta by staining lipid deposits using Oil Red O staining (N. R. Veillard, B. Kwak, G. Pelli, F. Mulhaupt, R. W. James, A. E. Proudfoot, F. Mach, Antagonism of RANTES receptors reduces atherosclerotic plaque formation in mice. Circ. Res. 2004; 94:253-61) and quantified by means of computerized image analysis (Diskus software, Hilgers, Aachen). Areas of atherosclerotic lesions were determined in 5 μm transverse sections through the heart and aortic root. The determination was performed for each aortic root on the basis of lipid stained areas of six sections a distance of 50 μm apart. The areas of atherosclerotic lesions were divided by the total surface area of the valve of each section. The thoracoabdominal aorta was opened along the ventral midline and the areas of the lesions were stained in an en-face preparation using Oil Red-O staining. The proportional amount of lipid deposit was calculated by dividing the stained area by the total thoracoabdominal surface area.

Sequence: CKEYFYTSGKCSNPAVVFVTRC [SEQ ID NO: 2]
- inhibition of potentiation of monocyte arrest due to heterophilic interaction of RANTES and PF4 (in words) [1]: weaker

Sequence: CKEYFYTSGKSSNPGIVFITRC [SEQ ID NO: 3]
- inhibition of potentiation of monocyte arrest due to heterophilic interaction of RANTES and PF4 [1]: up to 80%
- reduction of binding of RANTES to immobilized PF4 ([2]; RANTES 0.5 μM preincubated overnight with peptide at 100 μM, Example 1): up to 35%
- inhibition of the interaction of RANTES and PF4 (in words) ([2]; RANTES 0.5 μM preincubated with 0, 10 and 100 μM peptide, Example 1): concentration-dependent inhibition
- inhibition of the interaction of RANTES and PF4 (comparison in words) ([2]; RANTES 0.5 μM preincubated with 10 μM, 50 μM and 100 μM peptide, Example 2): definitely more effective than the polypeptide of the sequence SEQ ID NO: 2

Sequence: CKEYFYTSSKSSNLAVVFVTRC [SEQ ID NO: 15]
- area of the aortic root showing plaque in relation to the total valve surface area [3]: significantly reduced
- macrophage content in the lesions [3]: significantly reduced
- development of atherosclerotic lesions in comparison with mice that received the control peptide ([3]; Oil Red O staining): significant reduction

Sequence: KEYFYTSGK [SEQ ID NO: 14, control peptide, reference compound]
- inhibition of potentiation of monocyte arrest due to heterophilic interaction of RANTES and PF4 (in words) [1]: no significant inhibition
- inhibition of the interaction of RANTES and PF4 (in words) ([2]; RANTES 0.5 μM preincubated with 100 μM peptide, Example 2): did not exhibit any detectable inhibition
